Results reported in paper PMC10092094 (Chemmedchem, 2022).
Entries after “also recorded” stand apart in the source; their conditions may differ.

What was measured:
[1] = target: T1, OGG1 (Homo sapiens, UniProt O15527); test: biochemical; settings: for IC50: IC50 (CI95), biochemical inhibition; for IC50 / IC50 (CI95), biochemical inhibition: confidence interval 95 in parentheses
[2] = target: T1, OGG1; test: Differential scanning fluorimetry; format: binding

T1 sequence (O15527 whole entry): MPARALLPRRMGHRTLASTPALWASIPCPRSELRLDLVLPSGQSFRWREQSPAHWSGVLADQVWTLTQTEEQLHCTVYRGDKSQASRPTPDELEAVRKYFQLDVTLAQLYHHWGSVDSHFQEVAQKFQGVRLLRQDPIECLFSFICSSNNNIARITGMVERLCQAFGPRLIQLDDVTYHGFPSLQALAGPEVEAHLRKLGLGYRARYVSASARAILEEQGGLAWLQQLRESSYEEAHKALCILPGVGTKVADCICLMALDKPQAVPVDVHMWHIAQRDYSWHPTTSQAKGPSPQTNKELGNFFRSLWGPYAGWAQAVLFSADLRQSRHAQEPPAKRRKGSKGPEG

Compound | DSF stabilization (ΔT) [2] [K] | Activity against OGG1 (in words) [1] | further results
Cc1ccc(NC(=O)N2CCC(n3c(=O)[nH]c4ccccc43)CC2)cc1 [Compound 4, N‐(4‐methylphenyl)‐4‐(2‐oxo‐2,3‐dihydro‐1H‐1,3‐benzodiazol‐1‐yl)piperidine‐1‐carboxamide] | 3.1 |  | IC50 [1]: 19900 nM
Cc1ccc(NC(=O)N2CCC(n3c(=O)[nH]c4c(Br)cccc43)CC2)cc1 [Compound 45, 4‐(4‐bromo‐2‐oxo‐2,3‐dihydro‐1H‐1,3‐benzodiazol‐1‐yl)‐N‐(4‐methylphenyl)piperidine‐1‐carboxamide] | 5.1 |  | IC50 [1]: 2100 nM
CN(C(=O)N1CCC(n2c(=O)[nH]c3c(Br)cccc32)CC1)c1ccc(Cl)c(Cl)c1 [Compound 29, 4‐(4‐bromo‐2‐oxo‐2,3‐dihydro‐1H‐1,3‐benzodiazol‐1‐yl)‐N‐(3,4‐dichlorophenyl)‐N‐methylpiperidine‐1‐carboxamide] |  | no or a very low activity | 
COc1ncc(NC(=O)N2CCC(n3c(=O)[nH]c4c(Br)cccc43)CC2)cc1C [Compound 35, 4‐(4‐bromo‐2‐oxo‐2,3‐dihydro‐1H‐1,3‐benzodiazol‐1‐yl)‐N‐(6‐methoxy‐5‐methylpyridin‐3‐yl)piperidine‐1‐carboxamide] |  | only weakly active | 
CN(C)c1ccc(NC(=O)N2CCC(n3c(=O)[nH]c4c(Br)cccc43)CC2)cc1 [Compound 52, 4‐(4‐bromo‐2‐oxo‐2,3‐dihydro‐1H‐1,3‐benzodiazol‐1‐yl)‐N‐[4‐(dimethylamino)phenyl]piperidine‐1‐carboxamide] |  |  | IC50 [1]: 32200 nM
O=C(Nc1ccc([N+](=O)[O-])cc1)N1CCC(n2c(=O)[nH]c3c(Br)cccc32)CC1 [Compound 48, 4‐(4‐bromo‐2‐oxo‐2,3‐dihydro‐1H‐1,3‐benzodiazol‐1‐yl)‐N‐(4‐nitrophenyl)piperidine‐1‐carboxamide] |  |  | IC50 (CI95), biochemical inhibition [1]: no effect
O=C(Nc1ccc(F)cc1)N1CCC(n2c(=O)[nH]c3cc(Cl)ccc32)CC1 [Compound 15, 4‐(5‐chloro‐2‐oxo‐2,3‐dihydro‐1H‐1,3‐benzodiazol‐1‐yl)‐N‐(4‐fluorophenyl)piperidine‐1‐carboxamide] |  |  | IC50 (CI95), biochemical inhibition [1]: no effect
O=C(Nc1ccc(Cl)c(Cl)c1)N1CCC(n2c(=O)[nH]c3ccccc32)CC1 [Compound 9, N‐(3,4‐dichlorophenyl)‐4‐(2‐oxo‐2,3‐dihydro‐1H‐1,3‐benzodiazol‐1‐yl)piperidine‐1‐carboxamide] | 4.7 |  | IC50 [1]: 2900 nM
O=C(Nc1ccc(I)cc1)N1CCC(n2c(=O)[nH]c3ccccc32)CC1 [Compound 8, N‐(4‐iodophenyl)‐4‐(2‐oxo‐2,3‐dihydro‐1H‐1,3‐benzodiazol‐1‐yl)piperidine‐1‐carboxamide] | 2.4 |  | IC50 [1]: 2900 nM
COc1cc(NC(=O)N2CCC(n3c(=O)[nH]c4c(Br)cccc43)CC2)ccc1Cl [Compound 54, 4‐(4‐bromo‐2‐oxo‐2,3‐dihydro‐1H‐1,3‐benzodiazol‐1‐yl)‐N‐(4‐chloro‐3‐methoxyphenyl)piperidine‐1‐carboxamide] | 1.9 |  | IC50 [1]: 300 nM
O=C(Nc1ccc(Cl)c(Cl)c1)N1CCC(n2c(=O)[nH]c3cc(Cl)ccc32)CC1 [Compound 19, 4‐(5‐chloro‐2‐oxo‐2,3‐dihydro‐1H‐1,3‐benzodiazol‐1‐yl)‐N‐(3,4‐dichlorophenyl)piperidine‐1‐carboxamide] | 3.1 |  | 
O=C(Nc1ccc(I)cc1)N1CCC(n2c(=O)[nH]c3cc(Cl)ccc32)CC1 [Compound 18, 4‐(5‐chloro‐2‐oxo‐2,3‐dihydro‐1H‐1,3‐benzodiazol‐1‐yl)‐N‐(4‐iodophenyl)piperidine‐1‐carboxamide] | 1.6 |  | 
CC(=O)Nc1ccc(NC(=O)N2CCC(n3c(=O)[nH]c4c(Br)cccc43)CC2)cc1 [Compound 51, 4‐(4‐bromo‐2‐oxo‐2,3‐dihydro‐1H‐1,3‐benzodiazol‐1‐yl)‐N‐(4‐acetamidophenyl)piperidine‐1‐carboxamide] |  |  | IC50 (CI95), biochemical inhibition [1]: no effect
O=C(NC1CCCCC1)N1CCC(n2c(=O)[nH]c3c(Br)cccc32)CC1 [Compound 32, 4‐(4‐bromo‐2‐oxo‐2,3‐dihydro‐1H‐1,3‐benzodiazol‐1‐yl)‐N‐cyclohexylpiperidine‐1‐carboxamide] |  | only weakly active | 
O=C(Oc1ccc(Cl)cc1)N1CCC(n2c(=O)[nH]c3c(Br)cccc32)CC1 [Compound 31, 4‐chlorophenyl 4‐(4‐bromo‐2‐oxo‐2,3‐dihydro‐1H‐1,3‐benzodiazol‐1‐yl)piperidine‐1‐carboxylate] |  | no or a very low activity | 
O=C(c1ccc(I)cc1)N1CCC(n2c(=O)[nH]c3c(Br)cccc32)CC1 [Compound 33, 4‐bromo‐1‐[1‐(4‐iodobenzoyl)piperidin‐4‐yl]‐2,3‐dihydro‐1H‐1,3‐benzodiazol‐2‐one] |  | no or a very low activity | 
Cc1ccc2[nH]c(=O)n(C3CCN(C(=O)Nc4ccc(I)cc4)CC3)c2c1 [Compound 22, 4‐(6‐methyl‐2‐oxo‐2,3‐dihydro‐1H‐1,3‐benzodiazol‐1‐yl)‐N‐(4‐iodophenyl)piperidine‐1‐carboxamide] |  |  | IC50 (CI95), biochemical inhibition [1]: inactivity; also recorded: no effect
COc1cc(NC(=O)N2CCC(n3c(=O)[nH]c4c(OC)cccc43)CC2)ccc1C [TH9525, 4‐(4‐methoxy‐2‐oxo‐2,3‐dihydro‐1H‐1,3‐benzodiazol‐1‐yl)‐N‐(3‐methoxy‐4‐methylphenyl)piperidine‐1‐carboxamide] |  |  | IC50 [1]: 2000 nM
O=C(Cc1ccc(I)cc1)N1CCC(n2c(=O)[nH]c3c(Br)cccc32)CC1 [Compound 30, 4‐bromo‐1‐{1‐[2‐(4‐iodophenyl)acetyl]piperidin‐4‐yl}‐2,3‐dihydro‐1H‐1,3‐benzodiazol‐2‐one] |  | no or a very low activity | 
O=c1[nH]c2c(Br)cccc2n1C1CCN(S(=O)(=O)c2ccc(I)cc2)CC1 [Compound 34, 4‐bromo‐1‐[1‐(4‐iodobenzenesulfonyl)piperidin‐4‐yl]‐2,3‐dihydro‐1H‐1,3‐benzodiazol‐2‐one] |  | no or a very low activity | 
O=C(Nc1ccc(I)cc1)N1CCC(n2cnc3c(Br)cccc32)CC1 [Compound 41, 4‐(4‐bromo‐1H‐1,3‐benzodiazol‐1‐yl)‐N‐(4‐iodophenyl)piperidine‐1‐carboxamide] |  | neither of which had a pronounced effect on inhibiting or stabilizing OGG1 | 
O=C(Nc1ccccc1)N1CCC(n2c(=O)[nH]c3cc(Cl)ccc32)CC1 [Compound 11, 4‐(5‐chloro‐2‐oxo‐2,3‐dihydro‐1H‐1,3‐benzodiazol‐1‐yl)‐N‐phenylpiperidine‐1‐carboxamide] | 3.3 |  | 
O=C(Nc1ccc(I)cc1)N1CCC(n2c(=O)oc3c(Br)cccc32)CC1 [Compound 42, 4‐(7‐bromo‐2‐oxo‐2,3‐dihydro‐1,3‐benzoxazol‐3‐yl)‐N‐(4‐iodophenyl)piperidine‐1‐carboxamide] |  | neither of which had a pronounced effect on inhibiting or stabilizing OGG1 | 
CCOC(=O)c1ccc(NC(=O)N2CCC(n3c(=O)[nH]c4c(Br)cccc43)CC2)cc1 [Compound 50, Ethyl‐4‐{[4‐(4‐bromo‐2‐oxo‐2,3‐dihydro‐1H‐1,3‐benzodiazol‐1‐yl)‐piperidine‐1‐carbonyl]‐amino}‐benzoate] |  |  | IC50 (CI95), biochemical inhibition [1]: no effect
